Measurements from publication PMC11079024, “Identification of a family of species-selective complex I inhibitors as potential anthelmintics” (Nature Communications, 2024).
“And” between values parts separate entries of the source, which are not always exact repeats. Identical values can stand only once. Like-named read-outs stand apart in the source and are kept apart here.

System: HEK293 cells
[1] = dose 0.4 µM, individual replicate (Rep)
[2] = dose 0.8 µM, individual replicate (Rep)
[3] = dose 6.3 µM, individual replicate (Rep)
[4] = dose 3.1 µM, individual replicate (Rep)
[5] = dose 12.5 µM, individual replicate (Rep)
[6] = dose 25 µM, individual replicate (Rep)
[7] = dose 50 µM, individual replicate (Rep)

Compound	HEK293 viability	HEK293 viability (dose 0.4 µM, Mean of replicates)	HEK293 viability [1]	HEK293 viability (dose 0.8 µM, Mean of replicates)	HEK293 viability [2]	HEK293 viability (dose 6.3 µM, Mean of replicates)	HEK293 viability [3]	CC50 (read-out: HEK293 Cell Viability Assay LC50, 2 days exposure)	HEK293 viability [4]	HEK293 viability [5]	HEK293 viability [6]	HEK293 viability [7]
O=C(NCCc1ccc(Cl)cc1)c1ccccc1C(F)(F)F [Wact-11]	0.997	0.929	0.886 and 0.902	0.971	0.916	0.986	0.982 and 0.975	> 50 µM	–	–	–	–
Cc1cc(O)c2c(c1)O[C@@]1(C)CC[C@H]3C(C)(C)CCC[C@]34CO[C@@H]2[C@H]41 [Siccanin]	–	–	0.916	–	0.884	–	0.943 and 0.986	–	0.838 and 0.744	0.861 and 0.895 and 0.672	0.599 and 0.475 and 0.289	0.058 and 0.057
C=C(C)[C@H]1Cc2c(ccc3c2O[C@@H]2COc4cc(OC)c(OC)cc4[C@@H]2C3=O)O1 [Rotenone, reference compound]	–	–	0.393 and 0.409 and 0.194	–	0.340 and 0.322	–	0.380 and 0.286	–	0.488 and 0.455	0.265	0.242 and 0.200	0.196 and 0.203
